Assays:
[1] = test system: Escherichia coli NCTC 8196; test: MIC, two-fold microdilution (EUCAST), E. coli reference strain; format: cell-based; settings: Escherichia coli, NCTC8196, 18 h, read-out: MIC (µM) Escherichia coli NCTC 8196
From the text: A panel of reference bacteria, including Escherichia coli NCTC 8196, Staphylococcus aureus ATCC 6538, Klebsiella pneumoniae ATCC 13883, and Pseudomonas aeruginosa NCTC 6749, was used to assess the antibacterial activity of the nine tested aziridine phosphines (1–4) and aziridine phosphine oxides (5–9). The two-fold microdilution method, following EUCAST guidelines, was used to determine a minimal inhibitory concentration (MIC) of each compound, as presented in Table S1.
Antibacterial activity: The in vitro antibacterial activity of nine tested aziridine phosphines (1–4) and aziridine phosphine oxides (5–9) was evaluated against reference bacterial strains (E. coli NCTC 8196, S. aureus ATCC 6538, K. pneumoniae ATCC 13883, P. aeruginosa NCTC 6749) and 12 S. aureus clinical isolates, including two methicillin-resistant isolates (MRSA, D15 and D17) obtained from infected patients hospitalized at the Oncological Hospital in Lodz (Poland). All strains were kept frozen at −80 °C in Tryptic Soy Broth with 15% glycerol. The minimal inhibitory concentration (MIC) is defined as the lowest concentration of the compound that prevents visible growth of bacteria using the microdilution method followed the EUCAST guidelines. Each compound was added to 96-well microplates in two-fold dilutions at concentrations from 3.125 to 100 μM in Mueller–Hinton broth. […] Bacterial culture was added into wells at a density of 5 × 10^5 CFU mL^−1, and plates were incubated at 37 °C for 18 h. As a positive control, an untreated bacterial culture was used, and a clear culture medium served as a negative control. The optical density at OD600 was measured using the SpectraMax i3 Multi-Mode Platform (Molecular Devices, San Jose, CA, USA). Ciprofloxacin hydrochloride (CIP, Sigma-Aldrich, Darmstadt, Germany) was used as a reference antimicrobial drug.

HeLa cells = test: LDH release assay; format: cell-based, human; settings: 24 h, highest concentration of 50 µM
Protocol: In order to distinguish whether the cell viability inhibition was attributed to growth inhibition or cytotoxicity manifested by cell membrane disruption, the lactate dehydrogenase (LDH) release assay was conducted. LDH is a cytoplasmic enzyme rapidly released from cells upon membrane damage, a key feature of apoptosis, necrosis, and other forms of cell death. The released enzyme can be detected due to its ability to convert lactate into pyruvate and NADH, which is then specifically determined by a colorimetric assay.
Figure 3 The effects of 5 (blue) and 7 (green) on LDH release from HeLa cells. The cells were treated with compounds at a concentration range of 3.125–50 μM for 24 h at 37 °C and 5% CO2. Data are presented as the mean LDH release (%) ± SD of two experiments compared to untreated control (red). Statistical significance measured by two-way analysis of variance (ANOVA) is indicated by asterisks: (*) p < 0.05.
LDH release assay: The activity of 5 and 7 on cell membrane destabilization was determined with the CytoTox 96®Non-Radioactive Cytotoxicity Assay (Promega, Madison, WI, USA). […] After incubation, Stop Solution (50 μL) was added to each well, and the absorbance was measured at 490 nm using the SpectraMax i3 Multi-Mode Platform (Molecular Devices, San Jose, CA, USA). […]

Question: `CC(C)[C@@H]1CN1c1ccccc1P(=O)(c1ccccc1)c1ccccc1` [Compound 5] was tested. Which MIC [1] did it give?
Answer: Its MIC is greater than 100 µM.

Question: What about the “LDH release compared to untreated control” value (HeLa cells) of the same compound?
Answer: Its value is “significant LDH release”.

Question: Which results are given for `CC(C)C[C@H]1CN1c1ccccc1P(=O)(c1ccccc1)c1ccccc1` [Compound 7]?
Answer: MIC [1]: > 100 µM; LDH release compared to untreated control (HeLa cells): significant LDH release

— publication PMC11012799 (Molecules, 2024)
